Laboratory results reported in PubChem BioAssay (NCI).
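A five-concentration, 48-hour dose response in 96-well plates underlies each endpoint, interpolated linearly between surrounding concentrations. GI50 is the concentration that inhibits growth by half. Definition used: TGI = concentration required for complete inhibition of growth.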

Experiments:
Assay in all cases: growth of human tumour cells (NCI), 48 h; in the data active = GI50 below about 0.43 µM; inactive = the rest
[1] = tested on: 786-0 renal
[2] = tested on: A498 renal
[3] = tested on: A549 NSCLC
[4] = tested on: ACHN renal
[5] = tested on: BT-549 breast
[6] = tested on: CAKI-1 renal
[7] = tested on: CCRF-CEM leukemia
[8] = tested on: COLO 205 colon
[9] = tested on: DU-145 prostate
[10] = tested on: EKVX NSCLC
[11] = tested on: HCC-2998 colon
[12] = tested on: HCT-116 colon
[13] = tested on: HCT-15 colon
[14] = tested on: HL-60(TB) leukemia
[15] = tested on: HOP-62 NSCLC
[16] = tested on: HOP-92 NSCLC
[17] = tested on: HS 578T breast
[18] = tested on: HT29 colon
[19] = tested on: IGROV1 ovarian
[20] = tested on: K-562 leukemia
[21] = tested on: KM12 colon
[22] = tested on: LOX IMVI melanoma
[23] = tested on: M14 melanoma
[24] = tested on: MALME-3M melanoma
[25] = tested on: MCF7 breast
[26] = tested on: MDA-MB-231 breast
[27] = tested on: MDA-MB-435
[28] = tested on: MOLT-4 leukemia
[29] = tested on: NCI-H226 lung
[30] = tested on: NCI-H23 lung
[31] = tested on: NCI-H460 lung
[32] = tested on: NCI-H522 lung
[33] = tested on: NCI/ADR-RES ovarian
[34] = tested on: OVCAR-3 ovarian
[35] = tested on: OVCAR-4 ovarian
[36] = tested on: OVCAR-5 ovarian
[37] = tested on: OVCAR-8 ovarian
[38] = tested on: PC-3 prostate
[39] = tested on: RPMI-8226 leukemia
[40] = tested on: RXF 393 renal
[41] = tested on: SF-268 CNS
[42] = tested on: SF-295 CNS
[43] = tested on: SF-539 CNS
[44] = tested on: SK-MEL-2 melanoma
[45] = tested on: SK-MEL-28 melanoma
[46] = tested on: SK-MEL-5 melanoma
[47] = tested on: SK-OV-3 ovarian
[48] = tested on: SN12C renal
[49] = tested on: SNB-19 CNS
[50] = tested on: SNB-75 CNS
[51] = tested on: SW-620 colon
[52] = tested on: T-47D breast
[53] = tested on: TK-10 renal
[54] = tested on: U251 CNS
[55] = tested on: UACC-257 melanoma
[56] = tested on: UACC-62 melanoma
[57] = tested on: UO-31 renal

Nc1nc(N)c2cc(S(=O)(=O)c3ccccc3)ccc2n1
inactive: GI50 [1] 1010 nM | GI50 [2] 8.33 µM | GI50 [3] 622 nM | GI50 [4] 3.27 µM | GI50 [5] 6.59 µM | GI50 [6] 3.45 µM | GI50 [7] 2930 nM | GI50 [8] 6.99 µM | GI50 [9] 5.74 µM | GI50 [10] 7.13 µM | GI50 [11] 2380 nM | GI50 [12] 501 nM | GI50 [13] 1750 nM | GI50 [14] 1640 nM | GI50 [15] 4.14 µM | GI50 [16] 4.64 µM | GI50 [17] 6.93 µM | GI50 [18] 634 nM | GI50 [19] 4.59 µM | GI50 [21] 4.23 µM | GI50 [22] 516 nM | GI50 [23] 506 nM | GI50 [24] 4.97 µM | GI50 [25] 2860 nM | GI50 [26] 8.07 µM | GI50 [27] 487 nM | GI50 [28] 4.31 µM | GI50 [29] 5.87 µM | GI50 [30] 3.03 µM | GI50 [32] 4.56 µM | GI50 [33] 3.52 µM | GI50 [34] 5.68 µM | GI50 [35] 7.2 µM | GI50 [36] 2210 nM | GI50 [37] 1310 nM | GI50 [38] 838 nM | GI50 [39] 6.04 µM | GI50 [40] 72.5 µM | GI50 [41] 3.13 µM | GI50 [42] 792 nM | GI50 [43] 2050 nM | GI50 [44] 25.3 µM | GI50 [45] 10.6 µM | GI50 [46] 1140 nM | GI50 [47] 5.41 µM | GI50 [48] 3.21 µM | GI50 [49] 6.84 µM | GI50 [50] 8.86 µM | GI50 [51] 512 nM | GI50 [52] 9.57 µM | GI50 [53] 4.36 µM | GI50 [54] 1240 nM | GI50 [55] 14.9 µM | GI50 [56] 511 nM | GI50 [57] 13.3 µM
72.8 µM: TGI [16]
31.5 µM: TGI [14]
> 100 µM: TGI [1] | TGI [2] | TGI [3] | TGI [4] | TGI [6] | TGI [7] | TGI [8] | TGI [9] | TGI [10] | TGI [12] | TGI [13] | TGI [15] | TGI [17] | TGI [18] | TGI [19] | TGI [20] | TGI [21] | TGI [22] | TGI [23] | TGI [24] | TGI [25] | TGI [26] | TGI [27] | TGI [28] | TGI [29] | TGI [30] | TGI [31] | TGI [32] | TGI [33] | TGI [34] | TGI [35] | TGI [36] | TGI [37] | TGI [38] | TGI [39] | TGI [40] | TGI [41] | TGI [43] | TGI [44] | TGI [45] | TGI [46] | TGI [47] | TGI [48] | TGI [49] | TGI [50] | TGI [51] | TGI [52] | TGI [53] | TGI [54] | TGI [55] | TGI [56] | TGI [57]
32.2 µM: TGI [11]
92.3 µM: TGI [5]
51.9 µM: TGI [42]
active: GI50 [20] 339 nM | GI50 [31] 417 nM
